Data as given in ChEMBL document CHEMBL4385658, “Inhibition of β-amyloid-induced neurotoxicity by planar analogues of procyanidin B3” (Bioorg Med Chem Lett, 2019).
Active and inactive are the calls of the source. The calls are words filed in the database; no cut-off is given here.

Tests used:
SH-SY5Y = experiment: Cytotoxicity in human SH-SY5Y cells assessed as reduction in cell viability at 0.1 to 1000 nM incubated for 48 hrs by WST8 assay; assay type: cell-based; conditions: 1 µM
[1] = target: Amyloid-beta precursor protein (Homo sapiens) (UniProt P05067); experiment: Inhibition of Amyloid beta (1 to 42) (unknown origin) fibril formation assessed as reduction in number of fibrils at 20 uM incubated for 48 hrs by transmission-type electron microscopy
Sequence of Amyloid-beta precursor protein (Homo sapiens) (P05067 whole entry): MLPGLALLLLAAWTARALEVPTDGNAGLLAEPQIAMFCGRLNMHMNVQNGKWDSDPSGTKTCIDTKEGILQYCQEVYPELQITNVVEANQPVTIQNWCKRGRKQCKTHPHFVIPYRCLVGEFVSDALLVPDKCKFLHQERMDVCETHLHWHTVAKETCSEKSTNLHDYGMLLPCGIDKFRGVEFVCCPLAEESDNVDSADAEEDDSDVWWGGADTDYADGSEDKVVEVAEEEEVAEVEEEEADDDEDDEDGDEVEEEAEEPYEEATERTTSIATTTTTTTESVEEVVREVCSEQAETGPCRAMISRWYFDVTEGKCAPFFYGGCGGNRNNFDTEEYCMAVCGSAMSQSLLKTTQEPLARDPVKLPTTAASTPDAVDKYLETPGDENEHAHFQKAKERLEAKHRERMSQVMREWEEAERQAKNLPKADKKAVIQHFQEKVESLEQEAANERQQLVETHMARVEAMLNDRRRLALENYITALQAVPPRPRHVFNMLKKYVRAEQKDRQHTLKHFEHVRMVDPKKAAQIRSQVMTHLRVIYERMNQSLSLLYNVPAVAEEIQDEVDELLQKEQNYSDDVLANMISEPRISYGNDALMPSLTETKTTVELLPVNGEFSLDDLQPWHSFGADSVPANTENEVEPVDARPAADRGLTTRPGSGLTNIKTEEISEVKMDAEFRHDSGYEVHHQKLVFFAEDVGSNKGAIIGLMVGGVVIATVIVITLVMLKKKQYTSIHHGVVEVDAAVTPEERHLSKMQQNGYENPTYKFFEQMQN

[2] = target: Amyloid-beta precursor protein (Homo sapiens) (UniProt P05067); experiment: Inhibition of Amyloid beta (1 to 42) (unknown origin) fibril formation assessed as reduction in thickness of fibrils at 20 uM incubated for 48 hrs by transmission-type electron microscopy
[3] = target: Amyloid-beta precursor protein (Homo sapiens) (UniProt P05067); experiment: Inhibition of Amyloid beta (1 to 42) (unknown origin) self aggregation at 20 uM incubated for 12 hrs by thioflavin T assay
[4] = target: Amyloid-beta precursor protein (Homo sapiens) (UniProt P05067); experiment: Inhibition of Amyloid beta (1 to 42) (unknown origin) self aggregation assessed as decrease in negative maximum of CD spectrum of amyloid beta (1-42) incubated for 4 hrs by CD spectroscopy
[5] = target: Amyloid-beta precursor protein (Homo sapiens) (UniProt P05067); experiment: Inhibition of Amyloid beta (1 to 42) (unknown origin)-induced cytotoxicity in human SH-SY5Y cells assessed as increase in cell viability at 20 uM incubated for 48 hrs by WST8 assay; assay type: cell-based
[6] = target: Amyloid-beta precursor protein (Homo sapiens) (UniProt P05067); experiment: Inhibition of Amyloid beta (1 to 42) (unknown origin)-induced cytotoxicity in human SH-SY5Y cells assessed as increase in cell viability incubated for 48 hrs by WST8 assay; assay type: cell-based
[7] = target: Amyloid-beta precursor protein (Homo sapiens) (UniProt P05067); experiment: Inhibition of Amyloid beta (1 to 42) (unknown origin)-induced cytotoxicity in human SH-SY5Y cells assessed as increase in cell viability at 40 uM incubated for 48 hrs by WST8 assay; assay type: cell-based

| SMILES | inhibition [1] | inhibition [2] | inhibition [3] | inhibition [4] | Activity (SH-SY5Y) | inhibition [5] [%] | inhibition [6] | inhibition [7] [%] |
| --- | --- | --- | --- | --- | --- | --- | --- | --- |
| CC1(C)O[C@H]2Cc3c(O)cc(O)cc3O[C@@H]2c2cc(O)c(O)cc21 | – | – | Active | – | – | – | – | – |
| Oc1cc(O)c2c(c1)O[C@H](c1ccc(O)c(O)c1)[C@@H](O)C2 | – | – | Active | – | – | – | – | – |

Now from value to compound, other results behind:

| inhibition [1] | inhibition [2] | inhibition [3] | inhibition [4] | SMILES | Activity (SH-SY5Y) | inhibition [5] [%] | inhibition [6] | inhibition [7] [%] |
| --- | --- | --- | --- | --- | --- | --- | --- | --- |
| Active | Active | Active | Active | CC1(C)O[C@H]2[C@H](c3c(O)cc(O)c4c3O[C@@H]3c5cc(O)c(O)cc5C(C)(C)O[C@H]3C4)c3c(O)cc(O)cc3O[C@@H]2c2cc(O)c(O)cc21 | Non-Toxic | 100 | Dose-dependent effect | – |
| – | – | Active | – | Oc1cc(O)c2c(c1)O[C@H](c1ccc(O)c(O)c1)[C@@H](O)[C@@H]2c1c(O)cc(O)c2c1O[C@H](c1ccc(O)c(O)c1)[C@@H](O)C2 | Non-Toxic | – | Dose-dependent effect | 100 |
| – | – | Active | – | CC1(C)O[C@H]2Cc3c(O)cc(O)c([C@@H]4c5c(O)cc(O)cc5O[C@H](c5ccc(O)c(O)c5)[C@H]4O)c3O[C@@H]2c2cc(O)c(O)cc21 | Non-Toxic | – | Dose-dependent effect | 100 |
